Here are results for four compounds from ChEMBL document CHEMBL3407491, “Synthesis, characterization and in vitro photodynamic antimicrobial activity of basic amino acid-porphyrin conjugates” (Eur J Med Chem, 2015).

The test system of data set [1] is Staphylococcus aureus. The experiment in a line: Antibacterial activity against methicillin-resistant Staphylococcus aureus assessed as log reduction in bacterial count at 10 uM incubated in dark for 30 mins followed by exposure to light fluences at 650 nm and 6 J/cm2 and then incubated overnight measured after 24 hrs. The class given is functional.
A short description of data set [2]: Octanol water partition coefficient, log P of the compound by reverse-phase thin-layer chromatography. The class given is physicochemical.
Data set [3] deals with Pseudomonas aeruginosa. The experiment in a line: Antibacterial activity against Pseudomonas aeruginosa ATCC 27853 incubated in dark for 30 mins followed by exposure to light fluences at 650 nm and 6 J/cm2 and then incubated overnight measured after 24 hrs. As to conditions: ATCC 27853, light or radiation study. The data set is classed as functional.
Data set [4] concerns Pseudomonas aeruginosa. The data set can be described thus: Antibacterial activity against Pseudomonas aeruginosa ATCC 27853 assessed as log reduction in bacterial count at 10 uM incubated in dark for 30 mins followed by exposure to light fluences at 650 nm and 6 J/cm2 and then incubated overnight measured after 24 hrs. The data set is classed as functional.
Data set [5] relates to Escherichia coli. The data set can be described thus: Bactericidal activity against Escherichia coli ATCC 25922 incubated in dark for 30 mins followed by exposure to light fluences at 650 nm and 6 J/cm2 and then incubated overnight followed by further incubation on LB agar plates for another 24 hrs. As to conditions: ATCC 25922, light or radiation study. The class given is functional.

The test system of data set [6] is Escherichia coli. The data set can be described thus: Antibacterial activity against Escherichia coli ATCC 25922 incubated in dark for 30 mins followed by exposure to light fluences at 650 nm and 6 J/cm2 and then incubated overnight measured after 24 hrs. The class given is functional. The conditions noted are these: ATCC 25922, light or radiation study.
The test system of data set [7] is Pseudomonas aeruginosa. The data set can be described thus: Antibacterial activity against Pseudomonas aeruginosa ATCC 27853 incubated in dark for 30 mins measured after 24 hrs. The class given is functional.
Data set [8] relates to Staphylococcus aureus. The experiment in a line: Antibacterial activity against methicillin-resistant Staphylococcus aureus incubated in dark for 30 mins followed by exposure to light fluences at 650 nm and 6 J/cm2 and then incubated overnight measured after 24 hrs. The class given is functional. As to conditions: light or radiation study.
Data set [9] deals with Staphylococcus aureus. The experiment in a line: Antibacterial activity against methicillin-resistant Staphylococcus aureus incubated in dark for 30 mins measured after 24 hrs. The class given is functional.
Data set [10] relates to Staphylococcus aureus. The data set can be described thus: Antibacterial activity against methicillin-resistant Staphylococcus aureus incubated in dark for 30 mins and grown for 24 hrs followed by further incubation on LB agar plates for another 24 hrs. The data set is classed as functional.
The test system of data set [11] is Escherichia coli. The experiment in a line: Antibacterial activity against Escherichia coli ATCC 25922 incubated in dark for 30 mins measured after 24 hrs. The data set is classed as functional.
Data set [12] has as its system Pseudomonas aeruginosa. The experiment in a line: Antibacterial activity against Pseudomonas aeruginosa ATCC 27853 incubated in dark for 30 mins and grown for 24 hrs followed by further incubation on LB agar plates for another 24 hrs. The data set is classed as functional.
In data set [13] the test system is Staphylococcus aureus. The experiment in a line: Bactericidal activity against methicillin-resistant Staphylococcus aureus incubated in dark for 30 mins followed by exposure to light fluences at 650 nm and 6 J/cm2 and then incubated overnight followed by further incubation on LB agar plates for another 24 hrs. The class given is functional. The conditions noted are these: light or radiation study.

Data set [14] is described as follows: Singlet oxygen generation of the compound exposed to 4.2 mW/cm2 light energy density assessed as singlet oxygen quantum yield measured at 410 nm in 10 seconds intervals of irradiation at 0.2 uM by DPBF scavenger based assay.
Data set [15] relates to Pseudomonas aeruginosa. The experiment in a line: Bactericidal activity against Pseudomonas aeruginosa ATCC 27853 incubated in dark for 30 mins followed by exposure to light fluences at 650 nm and 6 J/cm2 and then incubated overnight followed by further incubation on LB agar plates for another 24 hrs. The data set is classed as functional. As to conditions: ATCC 27853, light or radiation study.

A short description of data set [16]: Photostability at 2 x 10^-5 mol/L exposed to 4.2 mW/cm2 light energy density assessed as change in absorption spectra after 30 mins post irradiation. The data set is classed as physicochemical. As to conditions: 0.5 h, 20 µM.
Data set [17] has as its system Escherichia coli. The experiment in a line: Antibacterial activity against Escherichia coli ATCC 25922 incubated in dark for 30 mins and grown for 24 hrs followed by further incubation on LB agar plates for another 24 hrs. The data set is classed as functional.
In data set [18] the test system is Escherichia coli. The data set can be described thus: Antibacterial activity against Escherichia coli ATCC 25922 assessed as log reduction in bacterial count at 10 uM incubated in dark for 30 mins followed by exposure to light fluences at 650 nm and 6 J/cm2 and then incubated overnight measured after 24 hrs. The class given is functional.
Data set [19] concerns Escherichia coli. The experiment in a line: Antibacterial activity against Escherichia coli ATCC 25922 at 3.91 uM to 62.50 uM incubated in dark for 30 mins followed by exposure to light fluences at 650 nm and 6 J/cm2 and then incubated overnight measured after 24 hrs. The data set is classed as functional, organism-based.
In data set [20] the test system is Pseudomonas aeruginosa. The experiment in a line: Antibacterial activity against Pseudomonas aeruginosa ATCC 27853 at 0.49 uM to 7.8 uM incubated in dark for 30 mins followed by exposure to light fluences at 650 nm and 6 J/cm2 and then incubated overnight measured after 24 hrs. The class given is functional, organism-based.
The test system of data set [21] is Pseudomonas aeruginosa. The experiment in a line: Antibacterial activity against Pseudomonas aeruginosa ATCC 27853 at 3.91 uM to 62.50 uM incubated in dark for 30 mins followed by exposure to light fluences at 650 nm and 6 J/cm2 and then incubated overnight measured after 24 hrs. The class given is functional, organism-based.
For data set [22], the system named is Staphylococcus aureus. The experiment in a line: Antibacterial activity against methicillin-resistant Staphylococcus aureus at 0.49 uM to 7.8 uM incubated in dark for 30 mins followed by exposure to light fluences at 650 nm and 6 J/cm2 and then incubated overnight measured after 24 hrs. The data set is classed as functional, organism-based.
The subject of data set [23] is Escherichia coli. The data set can be described thus: Antibacterial activity against Escherichia coli ATCC 25922 at 0.49 uM to 7.8 uM incubated in dark for 30 mins followed by exposure to light fluences at 650 nm and 6 J/cm2 and then incubated overnight measured after 24 hrs. The class given is functional, organism-based.

The structures appear in SMILES notation. Values after ≈ are worked out from the molar mass of the structure shown. Active and inactive are the calls of the source. The calls are words filed in the database; no cut-off is given here.

As to `NCCCC[C@H](N)C(=O)Nc1ccc(-c2c3nc(c(-c4ccc(N)cc4)c4ccc([nH]4)c(-c4ccc(NC(=O)[C@@H](N)CCCCN)cc4)c4nc(c(-c5ccc(N)cc5)c5ccc2[nH]5)C=C4)C=C3)cc1`, in the data set on Staphylococcus aureus [1], the “Log reduction in bacterial count” value was found to be 3. The logP in data set [2] is 1.3. For the same compound, the MIC in the data set with Pseudomonas aeruginosa [3] worked out at 15.6 µM (≈ 14.6 µg/mL); against Escherichia coli [6], 15.6 µM (≈ 14.6 µg/mL); against Pseudomonas aeruginosa [7] it was 250 µM (≈ 233 µg/mL); in the data set with Staphylococcus aureus [8], 7.81 µM (≈ 7.27 µg/mL); in the data set on Staphylococcus aureus [9] it was 125 µM (≈ 116 µg/mL); against Escherichia coli [11], 250 µM (≈ 233 µg/mL). The “log reduction in bacterial count” value with Pseudomonas aeruginosa [4] was >5; in the data set on Escherichia coli [18] it was 2. In addition, the MBC with Escherichia coli [5] worked out at 31.2 µM (≈ 29.1 µg/mL); against Staphylococcus aureus [10], 250 µM (≈ 233 µg/mL); against Pseudomonas aeruginosa [12], 500 µM (≈ 466 µg/mL); with Staphylococcus aureus [13], 15.6 µM (≈ 14.6 µg/mL); against Pseudomonas aeruginosa [15], 31.2 µM (≈ 29.1 µg/mL); against Escherichia coli [17], 500 µM (≈ 466 µg/mL). The Activity was 0.79 in data set [14] and < 20% in data set [16].
As to `NCCCC[C@H](N)C(=O)Nc1ccc(-c2c3nc(c(-c4ccccc4)c4ccc([nH]4)c(-c4ccc(NC(=O)[C@@H](N)CCCCN)cc4)c4nc(c(-c5ccccc5)c5ccc2[nH]5)C=C4)C=C3)cc1`, in the data set on Staphylococcus aureus [1], the “Log reduction in bacterial count” value stood at 3. Besides, the logP in data set [2] is 1.37. Moreover, the MIC in the data set with Pseudomonas aeruginosa [3] worked out at 31.2 µM (≈ 28.2 µg/mL); against Escherichia coli [6], 15.6 µM (≈ 14.1 µg/mL); against Pseudomonas aeruginosa [7], 62.5 µM (≈ 56.3 µg/mL); against Staphylococcus aureus [8], 15.6 µM (≈ 14.1 µg/mL); in the data set with Staphylococcus aureus [9], 125 µM (≈ 113 µg/mL); against Escherichia coli [11], 62.5 µM (≈ 56.3 µg/mL). Moreover, the “log reduction in bacterial count” value in the data set with Pseudomonas aeruginosa [4] is >5; with Escherichia coli [18], 2. Further, the MBC in the data set on Escherichia coli [5] turned out to be 31.2 µM (≈ 28.2 µg/mL); against Staphylococcus aureus [10], 250 µM (≈ 225 µg/mL); against Pseudomonas aeruginosa [12], 125 µM (≈ 113 µg/mL); in the data set with Staphylococcus aureus [13] it was 31.2 µM (≈ 28.2 µg/mL); against Pseudomonas aeruginosa [15], 62.5 µM (≈ 56.3 µg/mL); against Escherichia coli [17], 125 µM (≈ 113 µg/mL). For the same compound, the results for the Activity in data set [14] and in data set [16] were 0.57 and < 20%, respectively.
As to `Nc1ccc(-c2c3nc(c(-c4ccc(N)cc4)c4ccc([nH]4)c(-c4ccc(NC(=O)[C@@H](N)Cc5c[nH]cn5)cc4)c4nc(c(-c5ccc(N)cc5)c5ccc2[nH]5)C=C4)C=C3)cc1`, the outcome in the data set with Escherichia coli [19], in the data set on Pseudomonas aeruginosa [20], in the data set on Pseudomonas aeruginosa [21], in the data set with Staphylococcus aureus [22] and with Escherichia coli [23] was inactive. In data set [2], this compound came in with a logP of 1.53. Also, the MIC in the data set with Pseudomonas aeruginosa [3], with Escherichia coli [6], with Pseudomonas aeruginosa [7], against Staphylococcus aureus [8], with Staphylococcus aureus [9] and against Escherichia coli [11] was 62.5 µM (≈ 50.7 µg/mL) in each case. Besides, the MBC in the data set on Escherichia coli [5], against Staphylococcus aureus [10], against Pseudomonas aeruginosa [12], against Staphylococcus aureus [13], against Pseudomonas aeruginosa [15] and against Escherichia coli [17] was 250 µM (≈ 203 µg/mL) in each case. Also, the Activity in data set [14] was 0.2; in [16], < 20%.
Turning to `N=C(N)NCCC[C@H](N)C(=O)Nc1ccc(-c2c3nc(c(-c4ccccc4)c4ccc([nH]4)c(-c4ccccc4)c4nc(c(-c5ccccc5)c5ccc2[nH]5)C=C4)C=C3)cc1`, the outcome in the data set on Escherichia coli [19], with Pseudomonas aeruginosa [20], in the data set on Pseudomonas aeruginosa [21], in the data set with Staphylococcus aureus [22] and in the data set on Escherichia coli [23] was inactive. In data set [2], this compound registered a logP of 1.45. In addition, the MIC against Pseudomonas aeruginosa [3] stood at 62.5 µM (≈ 49.1 µg/mL); with Escherichia coli [6], 62.5 µM (≈ 49.1 µg/mL); against Pseudomonas aeruginosa [7], 125 µM (≈ 98.2 µg/mL); against Staphylococcus aureus [8] it was 62.5 µM (≈ 49.1 µg/mL); with Staphylococcus aureus [9] it was 125 µM (≈ 98.2 µg/mL); in the data set on Escherichia coli [11] it was 62.5 µM (≈ 49.1 µg/mL). In addition, the MBC against Escherichia coli [5] was 125 µM (≈ 98.2 µg/mL); in the data set with Staphylococcus aureus [10], 250 µM (≈ 196 µg/mL); in the data set on Pseudomonas aeruginosa [12] it was 250 µM (≈ 196 µg/mL); against Staphylococcus aureus [13], 125 µM (≈ 98.2 µg/mL); against Pseudomonas aeruginosa [15], 125 µM (≈ 98.2 µg/mL); against Escherichia coli [17], 125 µM (≈ 98.2 µg/mL). Moreover, the Activity in [14] was 0.71; in data set [16], < 20%.
